# Test results taken from patent US20160046618A1, “Cyclopropyl Fused Thiazin-2-Amine Compounds as Beta-Secretase Inhibitors and Methods of Use” (AMGEN INC., priority 2014, published 2016).
# What was measured:
# [1] = test system: Aβ40 in conditioned medium of cells stably expressing Amyloid Precursor Protein (APP); test: In vitro BACE-1 cell-based assay (Aβ40 sandwich ELISA); conditions: read-out: IC50 IP (μM) BACE1 cell
# Summary of the method: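 Aβ40 in supernatants measured by time-resolved fluorescence sandwich ELISA, with pAb40 as capture and biotin-6E10 as detector antibody, each incubated at 4 °C.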
# human recombinant BACE2 = human recombinant BACE2 (Homo sapiens (Human), UniProt Q9Y5Z0); test: In vitro enzymatic BACE2 FRET assay; format: biochemical; conditions: read-out: IC50 IP (μM) BACE2 enzyme
# Summary of the method: (§1)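 Fluorescence from cleavage of a quenched peptide spanning the BACE site (50 nM) was read at 488 nm excitation, 590 nm emission. Purified enzyme (Ni-NTA) and compound reacted for one hour before a Tris stop shifted pH to neutral.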
# Recombinant Cat D = Recombinant Cat D (Homo sapiens (Human), UniProt P07339); test: In vitro enzymatic Cathepsin D (Cat D) FRET assay; format: biochemical; conditions: read-out: IC50 IP (μM) CatD
# Summary of the method: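 Cleavage of a 20 nM FRET peptide by CHO-derived Cat D over 1 h at pH 3.5 (citrate buffer with CHAPS, 10% DMSO final). Endpoint fluorescence is read after Tris quench.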
# human recombinant BACE1 = human recombinant BACE1 (Homo sapiens (Human), UniProt P56817); test: In vitro enzymatic BACE1 FRET assay; format: biochemical; conditions: read-out: IC50 IP (μM) BACE1 enzyme
# Summary of the method: as §1
# human recombinant BACE2, sequence (Q9Y5Z0 63-518): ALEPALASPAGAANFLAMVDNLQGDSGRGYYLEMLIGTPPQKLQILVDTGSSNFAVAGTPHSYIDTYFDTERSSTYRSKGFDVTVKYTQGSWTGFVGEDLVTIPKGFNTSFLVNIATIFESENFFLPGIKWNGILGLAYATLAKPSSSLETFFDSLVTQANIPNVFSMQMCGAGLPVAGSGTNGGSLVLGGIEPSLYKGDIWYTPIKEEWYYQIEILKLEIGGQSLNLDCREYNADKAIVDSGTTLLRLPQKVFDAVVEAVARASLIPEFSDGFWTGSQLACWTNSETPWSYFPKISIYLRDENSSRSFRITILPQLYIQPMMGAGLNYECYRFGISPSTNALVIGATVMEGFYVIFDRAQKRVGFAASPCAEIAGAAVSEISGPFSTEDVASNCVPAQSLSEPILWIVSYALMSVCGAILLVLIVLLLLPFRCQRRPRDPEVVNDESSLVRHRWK
# human recombinant BACE1, sequence (P56817 46-501): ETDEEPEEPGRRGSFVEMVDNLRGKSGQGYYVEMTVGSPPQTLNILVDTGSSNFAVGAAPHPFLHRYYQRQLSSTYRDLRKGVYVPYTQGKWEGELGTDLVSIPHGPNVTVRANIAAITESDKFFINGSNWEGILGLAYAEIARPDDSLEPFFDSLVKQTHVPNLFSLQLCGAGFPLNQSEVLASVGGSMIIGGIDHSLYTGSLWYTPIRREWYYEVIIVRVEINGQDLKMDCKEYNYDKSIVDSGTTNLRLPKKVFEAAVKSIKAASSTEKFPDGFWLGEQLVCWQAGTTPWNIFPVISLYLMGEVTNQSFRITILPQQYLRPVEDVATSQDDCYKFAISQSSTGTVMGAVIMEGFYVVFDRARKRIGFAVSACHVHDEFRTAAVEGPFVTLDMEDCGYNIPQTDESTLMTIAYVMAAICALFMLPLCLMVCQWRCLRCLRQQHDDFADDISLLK
# Recombinant Cat D, sequence (P07339 65-412): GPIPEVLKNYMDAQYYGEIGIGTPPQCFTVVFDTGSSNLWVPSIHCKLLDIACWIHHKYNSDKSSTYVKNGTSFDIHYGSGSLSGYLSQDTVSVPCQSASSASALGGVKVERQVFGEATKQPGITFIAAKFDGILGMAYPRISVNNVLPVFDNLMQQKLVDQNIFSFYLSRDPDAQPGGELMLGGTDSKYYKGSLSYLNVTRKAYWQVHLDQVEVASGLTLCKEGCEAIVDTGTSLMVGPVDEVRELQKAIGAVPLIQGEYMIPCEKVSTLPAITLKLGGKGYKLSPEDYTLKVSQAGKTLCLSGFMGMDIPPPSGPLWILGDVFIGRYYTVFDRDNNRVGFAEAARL
IC50 [1] [µM],IC50 (human recombinant BACE2) [µM],IC50 (Recombinant Cat D) [µM],IC50 (human recombinant BACE1) [µM],Structure (SMILES)
0.252,1.41,306,0.0418,"Cc1nnc(COc2cnc3c(Nc4cc(F)c(F)c([C@@]5(C)N=C(N)S[C@@]6(C(F)F)C[C@@H]56)c4)nccc3n2)s1 [Example 889, N-(3-((1S,5S,6S)-3-amino-1-(difluoromethyl)-5-methyl-2-thia-4-azabicyclo[4.1.0]hept-3-en-5-yl)-4,5-difluorophenyl)-2-((5-methyl-1,3,4-thiadiazol-2-yl)methoxy)pyrido[3,4-b]pyrazin-5-amine]"
2.88,1.09,984,0.177,"C[C@@H](Oc1cnc2c(Nc3cc(F)c(F)c([C@@]4(C)N=C(N)S[C@@]5(C(F)F)C[C@@H]45)c3)nccc2n1)c1ncco1 [Example 891, N-(3-((1S,5S,6S)-3-amino-1-(difluoromethyl)-5-methyl-2-thia-4-azabicyclo[4.1.0]hept-3-en-5-yl)-4,5-difluorophenyl)-2-((1 R)-1-(1,3-oxazol-2-yl)ethoxy)pyrido[3,4-b]pyrazin-5-amine]"
0.056,0.848,873,0.00278,"C[C@H](Oc1cnc2c(Nc3cc(F)c(F)c([C@@]4(C)N=C(N)S[C@@]5(C(F)F)C[C@@H]45)c3)nccc2n1)c1ncco1 [Example 892, N-(3-((1S,5S,6S)-3-amino-1-(difluoromethyl)-5-methyl-2-thia-4-azabicyclo[4.1.0]hept-3-en-5-yl)-4,5-difluorophenyl)-2-((1 S)-1-(1,3-oxazol-2-yl)ethoxy)pyrido[3,4-b]pyrazin-5-amine]"
1.66,3.86,518,0.149,"C[C@]1(c2cc(Nc3nccc4nc(OCCN5CCCC5=O)cnc34)cc(F)c2F)N=C(N)S[C@@]2(C(F)F)C[C@@H]12 [Example 893, 1-(2-((5-((3-((1S,5S,6S)-3-amino-1-(difluoromethyl)-5-methyl-2-thia-4-azabicyclo[4.1.0]hept-3-en-5-yl)-4,5-difluorophenyl)amino)pyrido[3,4-b]pyrazin-2-yl)oxy)ethyl)-2-pyrrolidinone]"
0.05,0.464,> 133,0.00372,"COC[C@H](C)Oc1cnc2c(Nc3cc(F)c(F)c([C@@]4(C)N=C(N)S[C@@]5(C(F)F)C[C@@H]45)c3)nccc2n1 [Example 894, N-(3-((1S,5S,6S)-3-amino-1-(difluoromethyl)-5-methyl-2-thia-4-azabicyclo[4.1.0]hept-3-en-5-yl)-4,5-difluorophenyl)-2-((1S)-2-methoxy-1-methylethoxy)pyrido[3,4-b]pyrazin-5-amine]"
0.113,0.0254,167,0.0053,"COc1cnc2c(Nc3cc(F)c(F)c([C@@]4(C)N=C(N)S[C@@]5(C(F)F)C[C@@H]45)c3)nccc2n1 [Example 895, N-(3-((1S,5S,6S)-3-amino-1-(difluoromethyl)-5-methyl-2-thia-4-azabicyclo[4.1.0]hept-3-en-5-yl)-4,5-difluorophenyl)-2-methoxypyrido[3,4-b]pyrazin-5-amine]"

# Continued, compound first:
Structure (SMILES),IC50 [1] [µM],IC50 (human recombinant BACE2) [µM],IC50 (Recombinant Cat D) [µM],IC50 (human recombinant BACE1) [µM]
"Cc1nnc(COc2cnc3c(Nc4cc(F)c(F)c([C@@]5(C)N=C(N)S[C@@]6(C(F)F)C[C@@H]56)c4)nccc3n2)o1 [Example 877, N-(3-((1S,5S,6S)-3-amino-1-(difluoromethyl)-5-methyl-2-thia-4-azabicyclo[4.1.0]hept-3-en-5-yl)-4,5-difluorophenyl)-2-((5-methyl-1,3,4-oxadiazol-2-yl)methoxy)pyrido[3,4-b]pyrazin-5-amine]",0.0294,0.338,343,0.011
"CN(C)C(=O)COc1cnc2c(Nc3cc(F)c(F)c([C@@]4(C)N=C(N)S[C@@]5(C(F)F)C[C@@H]45)c3)nccc2n1 [Example 878, 2-((5-((3-((1S,5S,6S)-3-amino-1-(difluoromethyl)-5-methyl-2-thia-4-azabicyclo[4.1.0]hept-3-en-5-yl)-4,5-difluorophenyl)amino)pyrido[3,4-b]pyrazin-2-yl)oxy)-N,N-dimethylacetamide]",1.07,0.353,171,0.231
"C#C[C@H](C)Oc1cnc2c(Nc3ccc(F)c([C@@]4(CF)N=C(N)S[C@@]5(CF)C[C@H]54)c3)nccc2n1 [Example 879, N-(3-((1S,5S,6S)-3-amino-1,5-bis(fluoromethyl)-2-thia-4-azabicyclo[4.1.0]hept-3-en-5-yl)-4-fluorophenyl)-2-(((1S)-1-methyl-2-propyn-1-yl)oxy)pyrido[3,4-b]pyrazin-5-amine]",0.0179,0.282,2690,0.00107
"Cc1noc(COc2cnc3c(Nc4ccc(F)c([C@@]5(CF)N=C(N)S[C@@]6(CF)C[C@H]65)c4)nccc3n2)n1 [Example 880, N-(3-((1S,5S,6S)-3-amino-1,5-bis(fluoromethyl)-2-thia-4-azabicyclo[4.1.0]hept-3-en-5-yl)-4-fluorophenyl)-2-((3-methyl-1,2,4-oxadiazol-5-yl)methoxy)pyrido[3,4-b]pyrazin-5-amine]",0.0193,0.27,1110,0.00452
"COC[C@]12C[C@H]1[C@@](C)(c1cc(Nc3nccc4nc(OCc5ncccn5)cnc34)cc(F)c1F)N=C(N)S2 [Example 881, N-(3-((1S,5S,6S)-3-amino-1-(methoxymethyl)-5-methyl-2-thia-4-azabicyclo[4.1.0]hept-3-en-5-yl)-4,5-difluorophenyl)-2-(2-pyrimidinylmethoxy)pyrido[3,4-b]pyrazin-5-amine]",0.00819,0.14,349,0.00936
"COC[C@]12C[C@H]1[C@@](C)(c1cc(Nc3nccc4nc(OCc5nc(C)no5)cnc34)cc(F)c1F)N=C(N)S2 [Example 882, N-(3-((1S,5S,6S)-3-amino-1-(methoxymethyl)-5-methyl-2-thia-4-azabicyclo[4.1.0]hept-3-en-5-yl)-4,5-difluorophenyl)-2-((3-methyl-1,2,4-oxadiazol-5-yl)methoxy)pyrido[3,4-b]pyrazin-5-amine]",0.0204,0.381,911,0.00778
"Cc1nc(COc2cnc3c(Nc4cc(F)c(F)c([C@@]5(C)N=C(N)S[C@@]6(C(F)F)C[C@@H]56)c4)nccc3n2)no1 [Example 883, N-(3-((1S,5S,6S)-3-amino-1-(difluoromethyl)-5-methyl-2-thia-4-azabicyclo[4.1.0]hept-3-en-5-yl)-4,5-difluorophenyl)-2-((5-methyl-1,2,4-oxadiazol-3-yl)methoxy)pyrido[3,4-b]pyrazin-5-amine]",0.0133,0.091,363,0.000316
"C[C@]1(c2cc(Nc3nccc4nc(OCc5ncccn5)cnc34)cc(F)c2F)N=C(N)S[C@@]2(C(F)F)C[C@@H]12 [Example 884, N-(3-((1S,5S,6S)-3-amino-1-(difluoromethyl)-5-methyl-2-thia-4-azabicyclo[4.1.0]hept-3-en-5-yl)-4,5-difluorophenyl)-2-(2-pyrimidinylmethoxy)pyrido[3,4-b]pyrazin-5-amine]",0.0119,0.13,> 400,0.00427
"COC[C@]12C[C@H]1[C@@](C)(c1cc(Nc3nccc4nc(OCc5noc(C)n5)cnc34)cc(F)c1F)N=C(N)S2 [Example 885, N-(3-((1S,5S,6S)-3-amino-1-(methoxymethyl)-5-methyl-2-thia-4-azabicyclo[4.1.0]hept-3-en-5-yl)-4,5-difluorophenyl)-2-((5-methyl-1,2,4-oxadiazol-3-yl)methoxy)pyrido[3,4-b]pyrazin-5-amine]",0.00823,0.143,592,0.00223
"Cc1nc(COc2cnc3c(Nc4cc(F)c(F)c([C@@]5(C)N=C(N)S[C@@]6(C(F)F)C[C@@H]56)c4)nccc3n2)c(C)o1 [Example 886, N-(3-((1S,5S,6S)-3-amino-1-(difluoromethyl)-5-methyl-2-thia-4-azabicyclo[4.1.0]hept-3-en-5-yl)-4,5-difluorophenyl)-2-((2,5-dimethyl-1,3-oxazol-4-yl)methoxy)pyrido[3,4-b]pyrazin-5-amine]",0.0411,0.0278,136,0.0011
"Cc1noc(COc2cnc3c(Nc4cc(F)c(F)c([C@@]5(C)N=C(N)S[C@@]6(C(F)F)C[C@@H]56)c4)nccc3n2)n1 [Example 887, N-(3-((1S,5S,6S)-3-amino-1-(difluoromethyl)-5-methyl-2-thia-4-azabicyclo[4.1.0]hept-3-en-5-yl)-4,5-difluorophenyl)-2-((3-methyl-1,2,4-oxadiazol-5-yl)methoxy)pyrido[3,4-b]pyrazin-5-amine]",0.0442,0.317,> 400,0.00295
"Cc1cnc(COc2cnc3c(Nc4cc(F)c(F)c([C@@]5(C)N=C(N)S[C@@]6(C(F)F)C[C@@H]56)c4)nccc3n2)o1 [Example 888, N-(3-((1S,5S,6S)-3-amino-1-(difluoromethyl)-5-methyl-2-thia-4-azabicyclo[4.1.0]hept-3-en-5-yl)-4,5-difluorophenyl)-2-((5-methyl-1,3-oxazol-2-yl)methoxy)pyrido[3,4-b]pyrazin-5-amine]",0.0218,0.0581,71.9,0.00209
